Where two headings read alike, the source gives them in different places.
How the values were obtained:
[1] = tested on: active caspase 9 in HOS cells; assay: Active caspase 9 assay (flow cytometry); assay type: cell-based, human; details: 3.5 µM (IC50 concentration), 72 h
Description: (§1) The level of active executor caspase 3 and initiator caspase 9 was determined to examine whether compounds 4 and 6 induced apoptosis in the HOS and Saos-2 cells. The influence of compounds 4 and 6 on HOS and Saos-2 were determined with the caspase 3 assay, whereas the influence of compound 6 on the HOS cells was investigated with the caspase 9 assay. In both assays, the osteosarcoma cells (3.0 × 10^5 cells/mL) were seeded in 6-well plates. The cells were treated with compounds 4 and 6 at concentrations of 12.5, 25, 50 µM and 20, 40, 80 µM as well as 15, 30, 60 µM and 21.25, 42.5, 85 µM for 72 h, respectively. The solutions of the compounds were prepared in a medium with 2% FBS. […] Next, floating and adherent cells were harvested and subjected to further steps of the staining procedures according to the manufacturer’s instruction. The level of active caspase 3 and caspase 9 was determined using the PE Active Caspase-3 Apoptosis Kit (BD Pharmingen^TM) and the CaspaTag^TM Caspase-9 in Situ Assay Kit (Millipore, Darmstadt, Germany), respectively. The number of stained cells (active caspase 3- or 9-positive cells) was measured using FACS Calibur, and the obtained data were analyzed using Cell Quest Pro Version 6.0. for the Macintosh operating system (BD Pharmingen™). The presented results were calculated as a percent of cells with either active caspase 3 or 9 among all the analyzed cells.

[2] = tested on: active caspase 3 in HOS cells; assay: Active caspase 3 assay (flow cytometry); assay type: cell-based, human; details: 3.5 µM (IC50 concentration), 72 h
Description: as §1

[3] = tested on: active caspase 3 in Saos-2 cells; assay: Active caspase 3 assay (flow cytometry); assay type: cell-based, human; details: Saos-2, 12.5 µM (IC50 concentration), 72 h
Description: as §1

[4] = tested on: osteosarcoma Saos-2 cells; assay: MTT proliferation assay, 96 h; assay type: cell-based, human; details: MTT, 10% FBS, read-out: IC50 (µM ± SD) Saos-2
Description: (§2) One of the features specific totumor cells is the unlimited potential for proliferation. […] To this end, the assay conditions were established suchthat they encourage the proliferation of OS cells, i.e., the cell cultures at low density were incubated with compounds diluted in the growth medium (10% FBS) for an extended time of 96 h. Additionally, cisplatin, i.e., a common cytostatic used in osteosarcoma treatment, was included as a positive control in this study. Moreover, since the new generation of anti-cancer compounds is highly desired to be inert (non-cytotoxic) towards normal cells, the influence of compounds 1–7 on the viability of human normal cells (osteoblasts hFOB 1.19 and colon fibroblasts CCD-18Co) was also determined.To this end, the assay conditions were established such that they restrict the proliferation of OS cells and to establish whether the compounds have cytotoxic potential, i.e., the cell cultures were incubated with compounds diluted in the medium with a reduced concentration of FBS (2%) for a shortened time of 24 h. […] However, this activity varied depending on both the types of the compounds and the osteosarcoma cell lines (Table 4).
(§3) The anti-proliferative activity of compounds 1–7 against the HOS and Saos-2 osteosarcoma cells and the viability of the human normal hFOB 1.19 and CCD-18Co cells were screened by means of the MTT method. This method is commonly used to assess cell viability and proliferation or to determine the cytotoxicity of any compounds. It is a reliable method for this purpose because it is based on measurement of the level reduction in MTT dye to formazan byNAD(P)H-dependent oxidoreductase enzymes of metabolically active cells.
(§4) To assess the anti-proliferative activity of compounds 1–7 against the HOS and Saos-2 osteosarcoma cells, 3.0 × 10^4 cells/mLseeded (low density culture) into 96-well plates (Nunc, Roskilde, Denmark) were incubated with each compound at concentrations of 3.125, 6.25, 12.5, 25, 50, 100 and 200 µM prepared in medium with 10% FBS (growth medium) for 96 h. Additionally, cisplatin (Sigma Aldrich), i.e., a common cytostatic used in osteosarcoma treatment, was included as a positive control in this study. It was tested in the same conditions as compounds 1–7. The negative control was constituted by the untreated cells (0 µM). Next, the MTT assay was carried out as described previously.
(§5) The results of these assays were calculated as a percent of the untreated cells (100%; control). Then, the IC50 (concentration resulting in 50% inhibition of proliferation) and CC50 (concentration resulting in a 50% decrease in viability) values were calculated from a non-linear regression (log(inhibitor) vs. normalized response-variable slope) using GraphPad Prism 5.0 (GraphPAD Software Inc., San Diego, CA, USA). The IC50 and CC50 results were presented as themean ± SD of at least three experiments. In the case of the BrdU assay, the results were presented as a percent of untreated cells (100%; control).

osteosarcoma HOS cells = assay: MTT proliferation assay, 96 h; assay type: cell-based, human; details: proliferation, 10% FBS, read-out: IC50 (µM ± SD) HOS
Description: as §2, §3, §4, §5

[5] = MTT viability assay, 24 h; assay type: cell-based; details: human, 2% FBS
Description: as §2, §3
To assess the viability of human normal cells, confluent hFOB 1.19 (3 × 10^5 cells/mL) and CCD-18Co (1 × 10^5 cells/mL) cells seeded in 96-well plates (Nunc) were incubated with compounds 1–7 at concentrations of 3.125, 6.25, 12.5, 25, 50, 100 and 200 µM prepared in medium with 2% FBS (maintaining medium) for 24 h. The control was constituted by the untreated cells (0 µM). Next, the MTT assay was carried out as described previously.
as §5

NEP (neprilysin) = target: T1, NEP (neprilysin) (Homo sapiens, UniProt P08473); assay: Neutral endopeptidase activity assay (fluorometric); assay type: biochemical
T1 construct: purchased BioVision, Waltham, MA, USA
Description: The NEP activity in the presence of compounds 4 and 6 was determined using the Neprilysin Activity Assay Kit (BioVision, Waltham, MA, USA) according to the manufacturer’s instructions. The measurement is based on the ability of active neprilysin to cleave a synthetic substrate (Abz-based peptide) to release a fluorophore, which can be easily quantified using a fluorescence microplate reader. Briefly, pure neprilysin (5µLof stock solution) was incubated with solutions of the tested compounds (at least 4 concentrations in the range of 0.01–50 µM) for 10 min at 37 °C. The reaction was started by adding the substrate solution, and the final sample volume was 100µL. Fluorescence was measured (Ex/Em = 330/430nm) in the kinetic mode at 37 °C for 1–2 h. The same procedure was used to measure the control and background sample. Thiorphan was used as a reference NEP inhibitor. NEP activity was determined with the prepared Abz standard curve and expressed in µU/mL. The experiments were performed at least in triplicates, and the graphs represent mean ±SD values.

HOS cells = assay: BrdU proliferation assay, 96 h; assay type: cell-based, human; details: for decrease in proliferation: 96 h
Description: (§6) In the study on the implication of NEP in the anti-proliferative activity of compound 4, cell proliferation was determined with the BrdU assay. Cell cultures were prepared as described above. Depending on the requirements, the HOS and Saos-2 cells were treated with non-cytotoxic concentrations of the NEP inhibitor—thiorphan (1, 5, 20, 100, 200, 500 µM) or pre-treated with thiorphan (100 µM) for 1 h. In this scheme, compound 4 (HOS—25 µM; Saos-2—60 µM) was added alone or in combination with the NEP inhibitor into the cell cultures. Finally, cell proliferation was evaluated with the BrdU Cell Proliferation Assay according to the manufacturer’s instructions (Millipore, Darmstadt, Germany) after a 96-h incubation.
as §5

Saos-2 cells = assay: BrdU proliferation assay, 96 h; assay type: cell-based, human; details: for decrease in proliferation: 96 h
Description: as §6, §5

[6] = normal osteoblasts hFOB 1.19 cells, read-out: CC50 (µM ± SD) hFOB 1.19
[7] = Homo sapiens, SAOS-2, proliferation

T1 sequence (P08473 whole entry): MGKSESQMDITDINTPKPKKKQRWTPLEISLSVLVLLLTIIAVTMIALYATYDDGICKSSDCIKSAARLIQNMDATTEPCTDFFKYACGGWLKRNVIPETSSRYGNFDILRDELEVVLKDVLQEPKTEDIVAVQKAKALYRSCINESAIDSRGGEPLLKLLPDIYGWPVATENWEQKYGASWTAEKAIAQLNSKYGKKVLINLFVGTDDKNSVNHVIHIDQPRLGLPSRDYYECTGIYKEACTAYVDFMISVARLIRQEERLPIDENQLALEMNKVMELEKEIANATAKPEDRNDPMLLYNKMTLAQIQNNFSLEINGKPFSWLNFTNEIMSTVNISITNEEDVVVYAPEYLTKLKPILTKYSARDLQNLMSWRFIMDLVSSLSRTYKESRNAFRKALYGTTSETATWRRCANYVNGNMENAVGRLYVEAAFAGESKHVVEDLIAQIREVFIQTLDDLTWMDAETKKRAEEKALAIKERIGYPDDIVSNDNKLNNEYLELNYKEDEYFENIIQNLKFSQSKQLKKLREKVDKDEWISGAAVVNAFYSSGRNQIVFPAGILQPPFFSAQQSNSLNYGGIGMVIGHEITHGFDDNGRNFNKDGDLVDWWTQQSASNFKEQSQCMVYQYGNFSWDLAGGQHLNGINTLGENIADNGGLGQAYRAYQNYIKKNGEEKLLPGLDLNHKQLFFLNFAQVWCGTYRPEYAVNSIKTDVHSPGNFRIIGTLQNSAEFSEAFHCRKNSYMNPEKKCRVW

| Structure (SMILES) | IC50 [4, 7] [µM] | IC50 (osteosarcoma HOS cells; Homo sapiens, HOS) [µM] | CC50 at 24 h [5, 6] [µM] | further results |
| --- | --- | --- | --- | --- |
| [NH2][Pt]([NH2])([Cl])[Cl] [CDDP, cisplatin, reference compound] | – | – | – | increase in active caspase 9 vs untreated cells [1]: approx. 10%; increase in active caspase 3 vs untreated cells [2]: approx. 13%; increase in active caspase 3 vs untreated cells [3]: approx. 9%; IC50 ([4]; proliferation): 12.8 ± 3.7 µM; IC50 (osteosarcoma HOS cells): 3.5 ± 0.92 µM |
| [BH3-][P+](Cc1ccccc1)(OC(C)C)OC(C)C [Compound 1, benzylphosphonous acid-borane diisopropyl ester] | 91 ± 19.4 | 164 ± 79.5 | 161 ± 22.9 | – |
| O=C(O)CNC(=O)C(CS)Cc1ccccc1 (stereo not drawn) [thiorphan, N-[2-(mercaptomethyl)-1-oxo-3-phenylpropyl]glycine] | – | – | – | decrease in NEP activity (NEP (neprilysin); 0.0005 µM): approx. 30%; decrease in NEP activity (NEP (neprilysin); 0.005 µM): approx. 50%; decrease in NEP activity (NEP (neprilysin); 0.01 µM): ~60%; effect on proliferation (HOS cells; 100 µM): did not affect cell proliferation; decrease in proliferation (HOS cells; 200 µM): approx. 30%; decrease in proliferation (HOS cells; 500 µM): ~40%; effect on proliferation (Saos-2 cells; Saos-2, 100 µM): did not affect cell proliferation; decrease in proliferation (Saos-2 cells; Saos-2, 200 µM): 35%; decrease in proliferation (Saos-2 cells; Saos-2, 500 µM): 60% |

Further compounds by falling IC50 [4, 7], results first:

| IC50 [4, 7] [µM] | IC50 (osteosarcoma HOS cells; Homo sapiens, HOS) [µM] | Structure (SMILES) | CC50 at 24 h [5, 6] [µM] | further results |
| --- | --- | --- | --- | --- |
| 109 ± 15.8 | 51.2 ± 18.6 | [BH3-][P+](OC(C)C)(OC(C)C)C(Nc1ccc(Br)cc1)c1ccc(OC)cc1 (stereo not drawn) [Compound 7, [1-(N-p-bromophenylamino)]-1-(p-anisyl)methylphosphonous acid-borane diisopropyl ester] | 214 ± 39.5 | – |
| 96 ± 3.3 | 79.5 ± 22.9 | [BH3-][P+](OC(C)C)(OC(C)C)C(Nc1ccc(O)cc1)c1ccccc1 (stereo not drawn) [Compound 5] | 43.9 ± 3.5 | CC50 at 24 h ([5]; normal colon fibroblasts CCD-18Co cells, read-out: CC50 (µM ± SD) CCD-18Co): 62.5 ± 36.2 µM |
| 83.4 ± 18.4 | 344 ± 142 | [BH3-][P+](OC(C)C)(OC(C)C)C(C)(C)O [Compound 2, 1-hydroxy-1-methylethylphosphonous acid-borane diisopropyl ester] | 182 ± 28.1 | – |
| 79.6 ± 13.6 | 226 ± 3.56 | [BH3-][P+](OC(C)C)(N(CC)CC)C(C)(C)O (stereo not drawn) [Compound 3, 1-hydroxy-1-methylethylphosphonous acid-borane isopropyl ester N,N-diethylamide] | 224 ± 95.3 | – |

From publication PMC9223658, “New Borane-Protected Derivatives of α-Aminophosphonous Acid as Anti-Osteosarcoma Agents: ADME Analysis and Molecular Modeling, In Vitro Studies on Anti-Cancer Activities, and NEP Inhibition as a Possible Mechanism of Anti-Proliferative Activity” (International Journal of Molecular Sciences, 2022)
